Results as given in US20030013638A1, “P27 prevents cellular migration” (priority 2001, published 2003).

Experiments:
p27 (−/−) SMC = assay: SMC migration assay, modified Boyden chamber, bFGF-induced; assay type: cell-based, mouse
Description: (§1) Cell Culture: The murine aortic SMCs were obtained from the explant migration experiments described below, and were subcultured in DMEM containing 20% fetal bovine serum (FBS) at 37° C. in a humidified 95% air-5% CO2 atmosphere (Kobayashi et al., 1993). The growth medium was changed every other day until 80% confluence was reached. The cells used for experiments were from passages #3-6. Verification of SMC phenotype was determined by positive fluorescent staining for α-actin and negative staining for Factor VIII antigen. Cell viability was 95% or greater as determined by trypan blue exclusion at the conclusion of each experiment.
(§2) SMC migration assay: Migration was measured using a 48 well modified Boyden chamber housing a polycarbonate filter with 8 μm pores as described previously (Bornfeldt et al., 1994; Poon et al., 1996). Each membrane was coated with 0.1 mg/ml of collagen in 0.2 M acetic acid for 24 hours before each assay. For each assay, 50 ng/ml of bFGF in DMEM was loaded in quadruplicate wells in the bottom chamber. BSA (0.2% in DMEM without bFGF) was used as a negative control. Rapamycin, FK506 or C3 exoenzyme was directly added to the growth medium for either 48 hours (rapamycin and FK506) or 16 hours (C3 exoenzyme) before the cells were trypsinized, and counted with a hemacytometer. An equal number of cells (2×10^5/ml) in 50 μl was loaded to the top chamber of each well. After 6 hours, non-migrating cells were scraped from the upper surface of the filter. Cells on the lower surface were fixed with methanol and stained with Giemsa stain (Fisher Scientific, N.Y.) . The number of SMC on the lower surface of the filter was determined by counting four high power (X200) fields of constant area per well. Values are expressed as the percentage of cells migrating in response to bFGF after subtraction of the negative control (DMEM+BSA). Experiments were performed at least twice using quadruplicate wells.

wild type murine SMC = assay: as above; assay type: cell-based, mouse
Description: as §1
as §2, with “Rapamycin, FK506 or C3 exoenzyme was directly added to the growth medium for either 48 hours (rapamycin and FK506) or 16 hours (C3 exoenzyme) before the cells were trypsinized, and counted with a hemacytometer.” left out

[1] = test system: aortic SMC of p27 (+/−) mice; assay: Aortic SMC explant migration after in vivo treatment; design: species or system mouse; settings: 4 mg/kg/day for 5 days IP, p<0.05
Description: Aortic SMC explant migration: Wild type C57BL/6 mice were purchased from Jackson Laboratory (Bar Harbor, Me.). The p27 (+/−) and p27 (−/−) knockout mice were kindly provided by Dr. Andrew Koff of Memorial Sloan-Kettering Cancer Institute (Kiyokawa et al., 1996). The mice received one of three different treatment protocols (9 mg/kg/day for 7 days, 4 mg/kg/day for 5 days, or 2 mg/kg/day for 2 days) of rapamycin via intraperitoneal (IP) injection. The control group was treated with vehicle alone (0.2% sodium CMC, polysorbate 0.25%; Sigma, St. Louis, Mo.). At the conclusion of the treatment protocol, the mice were euthanized with 100 mg/kg of pentobarbital, the aortas excised and the adventitia and surrounding connective tissue were removed. The aortas were then opened by a longitudinal cut and the intima, as well as a thin portion of the subjacent media, were removed. The media were divided into 2 mm×2 mm pieces and placed in 6 well tissue culture plates (35 mm, 22.6 mm diameter, Costar, Cambridge, Mass.) containing DMEM with 20% FBS. The culture media was changed every other day. The migration of SMC out of the explant was observed under the microscope daily following explant. The total number of cells explanted was determined for each animal's explants on a daily basis. […]

[2] = test system: SMC obtained from wild type and p27 (−/−) animals; assay: Cell viability (trypan blue exclusion) and morphology of SMC; assay type: cell-based, mouse
Description: as §1

[3] = test system: aortic SMC of wild type C57BL/6 mice; assay: Aortic SMC explant migration after in vivo treatment; design: species or system mouse
Description: (§3) Aortic SMC explant migration: Wild type C57BL/6 mice were purchased from Jackson Laboratory (Bar Harbor, Me.). The p27 (+/−) and p27 (−/−) knockout mice were kindly provided by Dr. Andrew Koff of Memorial Sloan-Kettering Cancer Institute (Kiyokawa et al., 1996). […] The control group was treated with vehicle alone (0.2% sodium CMC, polysorbate 0.25%; Sigma, St. Louis, Mo.). At the conclusion of the treatment protocol, the mice were euthanized with 100 mg/kg of pentobarbital, the aortas excised and the adventitia and surrounding connective tissue were removed. The aortas were then opened by a longitudinal cut and the intima, as well as a thin portion of the subjacent media, were removed. The media were divided into 2 mm×2 mm pieces and placed in 6 well tissue culture plates (35 mm, 22.6 mm diameter, Costar, Cambridge, Mass.) containing DMEM with 20% FBS. The culture media was changed every other day. The migration of SMC out of the explant was observed under the microscope daily following explant. The total number of cells explanted was determined for each animal's explants on a daily basis. The results in FIG. 5 are presented as the mean percentage (±SD) of inhibition of migration (by rapamycin or taxol) as compared to control (untreated) for at least 4 animals from each group. The SMC phenotype was confirmed as previously described (Spector et al., 1997).

[4] = test system: aortic SMC of p27 (−/−) knockout mice; assay: as above; design: species or system mouse; settings: 20 mg/kg/day for 7 days
Description: as §3

C=CC[C@@H]1/C=C(\C)C[C@H](C)C[C@H](OC)[C@H]2O[C@@](O)(C(=O)C(=O)N3CCCC[C@H]3C(=O)O[C@H](/C(C)=C/[C@@H]3CC[C@@H](O)[C@H](OC)C3)[C@H](C)[C@@H](O)CC1=O)[C@H](C)C[C@@H]2OC [FK506]
effect on murine SMC migration (FIG. 1B) (p27 (−/−) SMC; p27 (−/−) SMC, 48 hours): no effect
effect on murine SMC migration (FIG. 1A) (wild type murine SMC; wild type SMC, 48 hours): no effect

CO[C@H]1C[C@@H]2CC[C@@H](C)[C@@](O)(O2)C(=O)C(=O)N2CCCC[C@H]2C(=O)O[C@H]([C@H](C)C[C@@H]2CC[C@@H](O)[C@H](OC)C2)CC(=O)[C@H](C)/C=C(\C)[C@@H](O)[C@@H](OC)C(=O)[C@H](C)C[C@H](C)/C=C/C=C/C=C/1C [rapamycin]
inhibition of explant migration as compared to untreated animals [1]: ~85%
inhibition at 0.1 µM (p27 (−/−) SMC; Mus musculus, p27 (−/−) SMC, 100 nM, 48 hours): ~35%
IC50 (p27 (−/−) SMC; Mus musculus, p27 (−/−) cells, treatment for 48 hours, read-out: IC50, inhibition of bFGF-induced SMC migration): ~0.2 µM
inhibition of migration (p27 (−/−) SMC; p27 (−/−) SMC, 1 nM to 10 nM, 48 hours): no significant inhibition
increased IC50 in p27 (−/−) cells as compared to wild type SMC (p27 (−/−) SMC; p27 (−/−) vs wild type SMC): 100 fold
IC50 (wild type murine SMC; Mus musculus, wild type murine SMC, treatment for 48 hours, read-out: IC50, inhibition of bFGF-induced SMC migration): ~0.002 µM
effect on SMC migration of addition immediately prior to incubation (wild type murine SMC; added to upper or lower chamber immediately prior to incubation, genotype not stated): no effect
cell viability, treated vs untreated [2]: no differences
inhibition of explant migration as compared to untreated animals ([3]; wild type, 4 mg/kg/day for 5 days IP, p<0.05): ~85%

CC(=O)O[C@H]1C(=O)[C@@]2(C)[C@H]([C@H](OC(=O)c3ccccc3)[C@]3(O)C[C@H](OC(=O)[C@H](O)[C@@H](NC(=O)c4ccccc4)c4ccccc4)C(C)=C1C3(C)C)[C@]1(OC(C)=O)CO[C@@H]1C[C@@H]2O [taxol, paclitaxel]
difference in inhibition of explant migration between wild type and p27 (−/−) animals [4]: No differences
inhibition of explant migration (FIG. 3C) ([4]; p27 (−/−)): inhibited migration
inhibition of explant migration (FIG. 3C) ([3]; p27 (+/+), 20 mg/kg/day for 7 days): inhibited migration
